Data set [1] has as its system Hepatitis B virus. Briefly: Antiviral activity against HBV infected in human HePAD38 assessed as reduction on HBeAg level at 20 uM by ELISA analysis relative to control. The format is functional. The arrangement: scale not given: the % may be the effect or the level left. (An ELISA detects its analyte on a solid surface through an enzyme-linked reagent.)
The test system of data set [2] is Hepatitis B virus. Briefly: Antiviral activity against HBV infected in human HePAD38 assessed as reduction on HBsAg level at 20 uM by ELISA analysis relative to control. The format is functional. Details: scale not given: the % may be the effect or the level left.
Data set [3] relates to Hepatitis B virus. Nature of the data set: Antiviral activity against HBV infected in human HePAD38 cells assessed as reduction in intracellular core HBV DNA level at 20 uM incubated for 6 days by qPCR analysis relative to control. The settings on record: time 6 day. Details: scale not given: the % may be the effect or the level left. The format is functional.
A short description of data set [4]: Cytotoxicity against human HepAD38 cells assessed as reduction in cell viability incubated for 6 days by CCK-8 assay. The format is functional. Conditions: HePAD38, 144 h, time 6 day. For orientation: Formazan colour is commonly taken as a measure of viable cells.
Data set [5] relates to Hepatitis B virus. Briefly: Antiviral activity against HBV infected in human HePAD38 cells assessed as decay of viral capsid protein by agarose gel electrophoresis-based assay. The format is functional, organism-based.
Data set [6] is described as follows: Selectivity index, ratio of CC50 for cytotoxicity against human HepAD38 cells to EC50 for antiviral activity against HBV infected in human HePAD38 cells. Format: toxicity, cell-based. Conditions: read-out: Ratio CC50/EC50.
For data set [7], the system named is Hepatitis B virus. Nature of the data set: Antiviral activity against HBV infected in human HePAD38 cells assessed as reduction of capsid associated HBV DNA. Format: functional, organism-based.
The subject of data set [8] is Hepatitis B virus. Nature of the data set: Antiviral activity against HBV infected in human HePAD38 cells assessed as decay of viral core protein by agarose gel electrophoresis-based assay. The format is functional, organism-based.
In data set [9] the test system is Hepatitis B virus. Nature of the data set: Antiviral activity against HBV infected in human HePAD38 assessed as reduction on HBeAg level at 5 uM by ELISA analysis relative to control. Format: functional. The arrangement: scale not given: the % may be the effect or the level left.
Data set [10] has as its system Hepatitis B virus. Briefly: Antiviral activity against HBV infected in human HePAD38 cells assessed as reduction in intracellular core HBV DNA level at 5 uM incubated for 6 days by qPCR analysis relative to control. The format is functional. The arrangement: scale not given: the % may be the effect or the level left. Conditions: time 6 day. Background: Quantitative PCR measures a nucleic acid by following its amplification.

The test system of data set [11] is Hepatitis B virus. Briefly: Antiviral activity against HBV infected in human HePAD38 assessed as reduction on HBsAg level at 5 uM by ELISA analysis relative to control. Format: functional. Details: scale not given: the % may be the effect or the level left.
The test system of data set [12] is Hepatitis B virus. Briefly: Antiviral activity against HBV infected in human HepAD38 cells assessed as effect on capsid morphology at 20 uM incubated for 3 to 7 days by transmission electron microscopy. Format: functional, organism-based. Conditions: time 3-7 day.
Data set [13] relates to Hepatitis B virus. Briefly: Antiviral activity against HBV infected in human HePAD38 assessed as reduction on HBsAg level at 2 uM by ELISA analysis relative to control. The format is functional. The arrangement: scale not given: the % may be the effect or the level left.
The subject of data set [14] is Hepatitis B virus. Nature of the data set: Antiviral activity against HBV infected in human HePAD38 assessed as reduction on HBeAg level at 2 uM by ELISA analysis relative to control. Format: functional. Details: scale not given: the % may be the effect or the level left.
For data set [15], the system named is Hepatitis B virus. Briefly: Antiviral activity against HBV infected in human HePAD38 cells assessed as reduction in capsid formation at 2 uM measured for 6 days by agarose gel electrophoresis-based assay. Conditions: time 6.0 day. The format is functional, organism-based.
For data set [16], the target named is Core antigen (Hepatitis B virus) (UniProt Q03732). Briefly: Modulation of capsid assembly in HBV infected in human HePAD38 cells assessed as inhibition of viral DNA replication at 5 uM incubated for 3 to 7 days by electron microscopic analysis. Format: cell-based. Conditions: filed as modulator, time 3-7 day.
Data set [17] has as its system Hepatitis B virus. Briefly: Antiviral activity against HBV infected in human HePAD38 cells assessed as reduction in intracellular core HBV DNA level at 2 uM incubated for 6 days by qPCR analysis relative to control. The settings on record: time 6 day. Details: scale not given: the % may be the effect or the level left. Format: functional.
The subject of data set [18] is Hepatitis B virus. Nature of the data set: Antiviral activity against ETV-resistant HBV infected in human HepG2 cells assessed as inhibition of viral replication. The format is functional, organism-based.
Data set [19] deals with Hepatitis B virus. Nature of the data set: Antiviral activity against HBV infected in human HePAD38 assessed as reduction on HBsAg level at 25 nM by ELISA analysis relative to control. Format: functional. The arrangement: scale not given: the % may be the effect or the level left.
Data set [20] relates to Hepatitis B virus. Nature of the data set: Antiviral activity against wild type HBV infected in human HepG2 cells assessed as inhibition of viral replication. The format is functional, organism-based.
The subject of data set [21] is Hepatitis B virus. Briefly: Antiviral activity against HBV infected in human HePAD38 assessed as reduction on HBeAg level at 25 nM by ELISA analysis relative to control. Details: scale not given: the % may be the effect or the level left. Format: functional.
For data set [22], the system named is Hepatitis B virus. Briefly: Antiviral activity against HBV infected in human HePAD38 cells assessed as reduction in intracellular core HBV DNA level at 25 nM incubated for 6 days by qPCR analysis relative to control. Details: scale not given: the % may be the effect or the level left. Conditions: time 6 day. The format is functional.

Consider 18 molecules from ChEMBL document CHEMBL5331101, “Synthesis and evaluation of N-sulfonylpiperidine-3-carboxamide derivatives as capsid assembly modulators inhibiting HBV in vitro and in HBV-transgenic mice” (Eur J Med Chem, 2023).

The structures appear in SMILES notation. The source made the active and inactive calls. The rule behind the calls is not given here.

Sequence of Core antigen (Hepatitis B virus) (Q03732 as listed by the source): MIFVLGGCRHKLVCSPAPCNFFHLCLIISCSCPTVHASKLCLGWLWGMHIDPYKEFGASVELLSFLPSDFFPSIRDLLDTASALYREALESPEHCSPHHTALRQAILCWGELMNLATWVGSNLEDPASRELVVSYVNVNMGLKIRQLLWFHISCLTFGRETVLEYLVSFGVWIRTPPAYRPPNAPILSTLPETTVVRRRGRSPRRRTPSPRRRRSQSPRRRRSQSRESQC

`COC(=O)c1c(S(=O)(=O)N2CCC[C@@H](C(=O)Nc3ccc(F)c(C)c3)C2)c(C)n(C)c1C`: the Activity is on record as 62.2% with Hepatitis B virus [1], 100.5% in the data set with Hepatitis B virus [2] and 34.9% with Hepatitis B virus [3].
Taken in the same sequence, the figures for `COC(=O)c1c(S(=O)(=O)N2CCC[C@H](C(=O)Nc3ccc(F)c(Cl)c3)C2)c(C)n(C)c1C` were 67.4%, 94% and 39.7%.
On the same counts, the results for `CCOC(=O)c1c(S(=O)(=O)N2CCCC(C(=O)Nc3ccc(F)c(Cl)c3)C2)c(C)n(CC)c1C` (stereo not drawn) are 66%, 98.2% and 44.2%.
Take `Cc1c(C#N)c(S(=O)(=O)N2CCC[C@H](C(=O)Nc3ccc(F)c(Cl)c3)C2)c(C)n1C`: the Activity in the data set on Hepatitis B virus [1] was found to be 36%; in the data set on Hepatitis B virus [2], 99.8%; in the data set with Hepatitis B virus [3], 11.1%. For the same molecule, the CC50 (in general, the concentration at which the toxic effect on the cells reaches its halfway point) in data set [4] was greater than 100000 nM. Moreover, the result with Hepatitis B virus [5] and with Hepatitis B virus [8] was inactive. Moreover, the selectivity ratio in data set [6] was greater than 22.7. In the data set with Hepatitis B virus [7], the EC50 (as a rule, the concentration at which the effect is half-maximal) turned out to be 4410 nM.
For `COC(=O)c1c(S(=O)(=O)N2CCC[C@H](C(=O)Nc3ccc(F)c(C)c3)C2)c(C)n(C(F)F)c1C`, the Activity was 37.9% in the data set on Hepatitis B virus [1], 92.8% with Hepatitis B virus [2] and 9.6% in the data set on Hepatitis B virus [3]. Besides, the CC50 in data set [4] worked out at 59200 nM. For the same molecule, the outcome with Hepatitis B virus [5] and in the data set on Hepatitis B virus [8] was inactive. In addition, the selectivity ratio in data set [6] is 179. For the same molecule, the EC50 with Hepatitis B virus [7] came out at 330 nM.
As for `CCOC(=O)c1c(S(=O)(=O)N2CCCC(C(=O)Nc3ccc(F)c(Cl)c3)C2)c(C)n(C)c1C` (stereo not drawn), the results for the Activity in the data set on Hepatitis B virus [1], in the data set with Hepatitis B virus [2] and with Hepatitis B virus [3] were 27.1%, 94.4% and 11.8%, respectively. Besides, the outcome with Hepatitis B virus [5] and with Hepatitis B virus [8] was Active.
For the molecule `COC(=O)c1c(S(=O)(=O)N2CCO[C@H](C(=O)Nc3ccc(F)c(C)c3)C2)c(C)n(C)c1C`, the Activity with Hepatitis B virus [1] worked out at 59%; in the data set on Hepatitis B virus [2], 88.2%; in the data set with Hepatitis B virus [3], 39%.
With `CCOC(=O)c1c(S(=O)(=O)N2CCCC(C(=O)Nc3ccc(F)cc3)C2)c(C)n(C)c1C` (stereo not drawn), the Activity is reported as 62.4% in the data set on Hepatitis B virus [1], 86.6% with Hepatitis B virus [2] and 53.4% in the data set with Hepatitis B virus [3].
On the same counts, the results for `CCOC(=O)c1c(S(=O)(=O)N2CCCC(C(=O)Nc3ccc(F)cc3F)C2)c(C)n(C)c1C` (stereo not drawn) are 54%, 93.5% and 44.9%.
As for `Cc1cc(NC(=O)c2cccc(S(=O)(=O)N[C@H]3CCOC3)c2)ccc1F`, the CC50 in data set [4] was greater than 100000 nM. The results for the Activity in the data set on Hepatitis B virus [9], in the data set with Hepatitis B virus [10] and in the data set with Hepatitis B virus [11] were 36.1%, 5.8% and 97%, respectively. The outcome with Hepatitis B virus [5], in the data set on Hepatitis B virus [8] and in the data set on Hepatitis B virus [12] was inactive. Also, the selectivity ratio in [6] was greater than 370. The EC50 in the data set on Hepatitis B virus [7] was found to be 270 nM.
Regarding `COC(=O)c1c(C)[nH]c(C)c1S(=O)(=O)N1CCC[C@H](C(=O)Nc2ccc(F)c(C)c2)C1`, the Activity in the data set on Hepatitis B virus [1] was 73.2%; with Hepatitis B virus [2] it was 106.1%; in the data set on Hepatitis B virus [3], 3.7%.
Consider `CCOC(=O)c1c(S(=O)(=O)N2CCC[C@H](C(=O)Nc3ccc(F)c(C)c3)C2)c(C)n(C2CC2)c1C`, for which the Activity amounted to 41.6% in the data set with Hepatitis B virus [1], 91.6% in the data set with Hepatitis B virus [2] and 7.7% in the data set with Hepatitis B virus [3]. Moreover, the CC50 in data set [4] was greater than 100000 nM. The outcome with Hepatitis B virus [5] and in the data set with Hepatitis B virus [8] was inactive. In addition, the selectivity ratio in data set [6] is greater than 17. For the same molecule, the EC50 with Hepatitis B virus [7] worked out at 5870 nM.
In the case of `CCOC(=O)c1c(S(=O)(=O)N2CCCC(C(=O)Nc3ccc(F)c(F)c3)C2)c(C)n(C)c1C` (stereo not drawn), the values for the Activity in the data set with Hepatitis B virus [1], in the data set on Hepatitis B virus [2] and in the data set with Hepatitis B virus [3] were 27.2%, 96% and 11.5%, respectively. For the same molecule, the CC50 in data set [4] is greater than 100000 nM. Moreover, the result with Hepatitis B virus [5] and with Hepatitis B virus [8] was Active. Further, the selectivity ratio in data set [6] was greater than 192. In addition, the EC50 in the data set on Hepatitis B virus [7] is 520 nM.
Turning to `COC(=O)c1c(S(=O)(=O)N2CCC[C@H](C(=O)Nc3ccc(F)c(C)c3)C2)c(C)n(C)c1C`, the Activity was 54.6% in the data set on Hepatitis B virus [1], 97.3% in the data set on Hepatitis B virus [2] and 29.8% with Hepatitis B virus [3].
On the same counts, the results for `COC(=O)c1c(S(=O)(=O)N2CCC[C@H](C(=O)Nc3ccc(F)c(C#N)c3)C2)c(C)n(C)c1C` are 61.9%, 92.4% and 29.7%.
As for `COC(=O)C1=C(C)NC(c2ncc(F)cc2F)=N[C@H]1c1ccc(F)cc1Cl`, in data set [4], the CC50 is greater than 20000 nM. In addition, the Activity in the data set with Hepatitis B virus [13] was determined as 88.5%; in the data set with Hepatitis B virus [14] it was 31.8%; with Hepatitis B virus [17] it was 4.9%. The result (with Hepatitis B virus [15]; in [16]; with Hepatitis B virus [5]; in the data set on Hepatitis B virus [8]) was Active. The EC50 with Hepatitis B virus [7] is 50 nM.
With `C=C1[C@H](CO)[C@@H](O)C[C@@H]1n1cnc2c(=O)[nH]c(N)nc21` [ENTECAVIR ANHYDROUS], the CC50 in [4] is greater than 500 nM. The concentration giving a half-maximal response (EC50) with Hepatitis B virus [18] was 340 nM; in the data set with Hepatitis B virus [20] it was 270 nM; with Hepatitis B virus [7], 3 nM. Besides, the selectivity ratio in data set [6] was greater than 155. Further, the Activity in the data set with Hepatitis B virus [19] came to 93.7%; in the data set on Hepatitis B virus [21], 93.4%; in the data set with Hepatitis B virus [22] it was 3.1%.
With `COC(=O)c1c(S(=O)(=O)N2CCC[C@H](C(=O)Nc3ccc(F)c(C)c3)C2)c(C)n(CC(C)=O)c1C`, the Activity in the data set with Hepatitis B virus [1] worked out at 49.4%; in the data set with Hepatitis B virus [2] it was 92.8%; in the data set on Hepatitis B virus [3], 38.2%.
